SMILES strings stand for the structures.

In the experiment the test system is HCV 1b-377-neo replicon cells. Put plainly: HCV replicon assay, HCV 1b-377-neo replicon cells (1b FRET). It counts as cell-based, Hepatitis C virus genotype 1b. Particulars: Hepatitis C virus, HCV 1b-377-neo replicon cells; HCV 1b genotype; read-out: EC50 range against HCV 1b (Table 2, Range). The method in brief: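 Compounds were tested in genotype 1b subgenomic replicon cells carrying a neomycin marker, alongside a matched replicon line with an NS5A Y2065H substitution that confers resistance to a reference NS5A inhibitor.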
(A replicon is a self-replicating genome or part of one, used to study replication in cells.)
Broadly, the EC50 is the concentration at which the effect is half-maximal. With `CN(C)[C@@H](C(=O)N1CCC[C@H]1c1ncc(-c2ccc(-c3ccc(-c4cnc([C@@H]5CCCN5C(=O)[C@@H](c5ccccc5F)N(C)C)[nH]4)cc3)cc2)[nH]1)c1ccccc1` [Example 107-31, (1R)-2-((2S)-2-(5-(4′-(2-((2S)-1-((2R)-2-(dimethylamino)-2-(2-fluorophenyl)acetyl)-2-pyrrolidinyl)-1H-imidazol-5-yl)-4-biphenylyl)-1H-imidazol-2-yl)-1-pyrrolidinyl)-N,N-dimethyl-2-oxo-1-phenylethanamine], the EC50 lay within 0.001 to 0.999 nM.

In the case of `CO[C@@H](C(=O)N1CCC[C@H]1c1ncc(-c2ccc(-c3ccc(-c4cnc([C@@H]5CCCN5C(=O)[C@@H](c5ccccc5F)N(C)C)[nH]4)cc3)cc2)[nH]1)c1ccccc1` [Example 107-32, (1R)-1-(2-fluorophenyl)-2-((2S)-2-(5-(4′-(2-((2S)-1-((2R)-2-methoxy-2-phenylacetyl)-2-pyrrolidinyl)-1H-imidazol-5-yl)-4-biphenylyl)-1H-imidazol-2-yl)-1-pyrrolidinyl)-N,N-dimethyl-2-oxoethanamine], the EC50 was in the range of 0.001 to 0.999 nM.

Turning to `CN(C)[C@@H](C(=O)N1CCC[C@H]1c1ncc(-c2ccc(-c3ccc(-c4cnc([C@@H]5CCCN5C(=O)C5(c6ccccc6)CC5)[nH]4)cc3)cc2)[nH]1)c1ccccc1F` [Example 107-34, (1R)-1-(2-fluorophenyl)-N,N-dimethyl-2-oxo-2-((2S)-2-(5-(4′-(2-((2S)-1-((1-phenylcyclopropyl)carbonyl)-2-pyr-rolidinyl)-1H-imidazol-5-yl)-4-biphenylyl)-1H-imidazol-2-yl)-1-pyrrolidinyl)ethanamine], the half-maximal effective concentration (EC50) fell in the range of 0.001 to 0.999 nM.

As for `CN(C)[C@@H](C(=O)N1CCC[C@H]1c1ncc(-c2ccc(-c3ccc(-c4cnc([C@@H]5CCCN5C(=O)[C@@H](c5ccccc5Cl)N(C)C)[nH]4)cc3)cc2)[nH]1)c1ccccc1` [Example 107-35, (1R)-1-(2-chloro-phenyl)-2-((2S)-2-(5-(4′-(2-((2S)-1-((2R)-2-(dimethylamino)-2-phenylacetyl)-2-pyrrolidinyl)-1H-imidazol-5-yl)-4-biphenylyl)-1H-imidazol-2-yl)-1-pyrrolidinyl)-N,N-dimethyl-2-oxoethanamine], the concentration giving a half-maximal response (EC50) was in the range of 0.001 to 0.999 nM.

In the case of `COC(=O)N[C@@H](C(=O)N1CCC[C@H]1c1ncc(-c2ccc(-c3ccc(-c4cnc([C@@H]5CCCN5C(=O)[C@@H](c5ccccc5Cl)N(C)C)[nH]4)cc3)cc2)[nH]1)c1ccccc1` [Example 107-36, methyl ((1R)-2-((2S)-2-(5-(4′-(2-((2S)-1-(2R)-2-(2-chlorophenyl)-2-(dimethylamino)acetyl)-2-pyrrolidinyl)-1H-imidazol-5-yl)-4-biphenylyl)-1H-imidazol-2-yl)-1-pyrrolidinyl)-2-oxo-1-phenylethyl) carbamate], the EC50 lay within 0.001 to 0.999 nM.

Take `CO[C@@H](C(=O)N1CCC[C@H]1c1ncc(-c2ccc(-c3ccc(-c4cnc([C@@H]5CCCN5C(=O)[C@@H](c5ccccc5Cl)N(C)C)[nH]4)cc3)cc2)[nH]1)c1ccccc1` [Example 107-37, (1R)-1-(2-chlorophenyl)-2-((2S)-2-(5-(4′-(2-((2S)-1-((2R)-2-methoxy-2-phenylacetyl)-2-pyrrolidinyl)-1H-imidazol-5-yl)-4-biphenylyl)-1H-imidazol-2-yl)-1-pyrrolidinyl)-N,N-dimethyl-2-oxoethanamine]: the EC50 fell in the range of 0.001 to 0.999 nM.

On to `CN(C)[C@@H](C(=O)N1CCC[C@H]1c1ncc(-c2ccc(-c3ccc(-c4cnc([C@@H]5CCCN5C(=O)[C@H]5CCCO5)[nH]4)cc3)cc2)[nH]1)c1ccccc1Cl` [Example 107-38, (1R)-1-(2-chloro-phenyl)-N,N-dimethyl-2-oxo-2-((2S)-2-(5-(4′-(2-((2S)-1-((2R)-tetrahydro-2-furanylcarbonyl)-2-pyrrolidinyl)-1H-imidazol-5-yl)-4-biphenylyl)-1H-imidazol-2-yl)-1-pyrrolidinyl) ethanamine], for which the concentration for a half-maximal effect (EC50) is 0.001 to 0.999 nM.

Regarding `COC(=O)N[C@@H](C(=O)N1CCC[C@H]1c1ncc(-c2ccc(-c3ccc(-c4cnc([C@@H]5CCCN5C(=O)[C@H]5CCCO5)[nH]4)cc3)cc2)[nH]1)c1ccccc1Cl` [Example 107-39, methyl ((1R)-1-(2-chlorophenyl)-2-oxo-2-((2S)-2-(5-(4′-(2-((2S)-1-((2R)-tetrahydro-2-furanylcarbonyl)-2-pyrrolidinyl)-1H-imidazol-5-yl)-4-biphenylyl)-1H-imidazol-2-yl)-1-pyrrolidinyl)ethyl) carbamate], the half-maximal effective concentration (EC50) was in the range of 0.001 to 0.999 nM.

Turning to `COC(=O)N[C@@H](C(=O)N1CCC[C@H]1c1ncc(-c2ccc(-c3ccc(-c4cnc([C@@H]5CCCN5C(=O)[C@@H](c5ccccc5)N(C)C)[nH]4)cc3)cc2)[nH]1)c1ccccc1Cl` [Example 107-40, methyl ((1R)-1-(2-chlorophenyl)-2-((2S)-2-(5-(4′-(2-((2S)-1-((2R)-2-(dimethylamino)-2-phenylacetyl)-2-pyrrolidinyl)-1H-imidazol-5-yl)-4-biphenylyl)-1H-imidazol-2-yl)-1-pyrrolidinyl)-2-oxoethyl) carbamate], the 50% effective concentration (EC50) lay within 0.001 to 0.999 nM.

As for `COC(=O)N[C@@H](C(=O)N1CCC[C@H]1c1ncc(-c2ccc(-c3ccc(-c4cnc([C@@H]5CCCN5C(=O)[C@H](NC(=O)OC)c5ccccc5Cl)[nH]4)cc3)cc2)[nH]1)c1ccccc1` [Example 107-41, methyl ((1R)-2-((2S)-2-(5-(4′-(2-((2S)-1-((2R)-2-(2-chlorophenyl)-2-((methoxy-carbonyl)amino)acetyl)-2-pyrrolidinyl)-1H-imidazol-5-yl)-4-biphenylyl)-1H-imidazol-2-yl)-1-pyrrolidinyl)-2-oxo-1-phenylethyl) carbamate], the EC50 is 0.001 to 0.999 nM.

For the compound `COC(=O)N[C@@H](C(=O)N1CCC[C@H]1c1ncc(-c2ccc(-c3ccc(-c4cnc([C@@H]5CCCN5C(=O)[C@@H](c5ccccc5)N5CCC(C)(O)CC5)[nH]4)cc3)cc2)[nH]1)c1ccccc1Cl` [Example 107-42, methyl ((1R)-1-(2-chlorophenyl)-2-((2S)-2-(5-(4′-(2-((2S)-1-((2R)-2-(4-hydroxy-4-methyl-1-piperidinyl)-2-phenylacetyl)-2-pyrrolidinyl)-1H-imidazol-5-yl)-4-biphenylyl)-1H-imidazol-2-yl)-1-pyrrolidinyl)-2-oxoethyl) carbamate], the concentration giving a half-maximal response (EC50) lay in the range of 0.001 to 0.999 nM.

Take `COC(=O)N[C@@H](C(=O)N1CCC[C@H]1c1ncc(-c2ccc(-c3ccc(-c4cnc([C@@H]5CCCN5C(=O)[C@H](OC)c5ccccc5)[nH]4)cc3)cc2)[nH]1)c1ccccc1Cl` [Example 107-43, methyl ((1R)-1-(2-chlorophenyl)-2-((2S)-2-(5-(4′-(2-((2S)-1-((2R)-2-methoxy-2-phenylacetyl)-2-pyrrolidinyl)-1H-imidazol-5-yl)-4-biphenylyl)-1H-imidazol-2-yl)-1-pyrrolidinyl)-2-oxoethyl) carbamate]: the concentration for a half-maximal effect (EC50) fell in the range of 0.001 to 0.999 nM.

Regarding `COC(=O)N[C@@H](C(=O)N1CCC[C@H]1c1ncc(-c2ccc(-c3ccc(-c4cnc([C@@H]5CCCN5C(=O)[C@@H](c5ccccc5Cl)N(C)C)[nH]4)cc3)cc2)[nH]1)c1ccccc1Cl` [Example 107-44, methyl ((1R)-1-(2-chlorophenyl)-2-((2S)-2-(5-(4′-(2-((2S)-1-((2R)-2-(2-chloro-phenyl)-2-(dimethylamino)acetyl)-2-pyrrolidinyl)-1H-imidazol-5-yl)-4-biphenylyl)-1H-imidazol-2-yl)-1-pyrrolidinyl)-2-oxoethyl) carbamate], the EC50 was in the range of 0.001 to 0.999 nM.

As for `CCNC(=O)N1CCC[C@H]1c1ncc(-c2ccc(-c3ccc(-c4cnc([C@@H]5CCCN5C(=O)[C@H](NC(=O)OC)c5ccccc5)[nH]4)cc3)cc2)[nH]1` [Example 108, methyl ((1R)-2-((2S)-2-(5-(4′-(2-((2S)-1-(ethylcarbamoyl)-2-pyrrolidinyl)-1H-imidazol-5-yl)-4-biphenylyl)-1H-imidazol-2-yl)-1-pyrrolidinyl)-2-oxo-1-phenylethyl)carbamate], the EC50 is 0.001 to 0.999 nM.

On to `O=C(OCc1ccccc1)N1CCC[C@H]1c1ncc(-c2ccc(-c3ccc(-c4cnc([C@@H]5CCCN5C(=O)OCc5ccccc5)[nH]4)cc3)cc2)[nH]1` [Example 109, dibenzyl (2S,2′S)-2,2′-(4,4′-biphenyldiylbis(1H-imidazole-5,2-diyl))di(1-pyrrolidinecarboxylate)], for which the EC50 lay in the range of 1 to 99 nM.

Take `O=C(N[C@@H](C(=O)N1CCC[C@H]1c1ncc(-c2ccc(-c3ccc(-c4cnc([C@@H]5CCCN5C(=O)[C@@H]5CCCO5)[nH]4)cc3)cc2)[nH]1)c1ccccc1)[C@H]1CCCO1` [Example 110, (2R)—N-((1R)-2-oxo-1-phenyl-2-((2S)-2-(5-(4′-(2-((2S)-1-((2S)-tetrahydro-2-furanylcarbonyl)-2-pyrrolidinyl)-1H-imidazol-5-yl)-4-biphenylyl)-1H-imidazol-2-yl)-1-pyrrolidinyl)ethyl)tetrahydro-2-furancarboxamide]: the concentration for a half-maximal effect (EC50) lay within 0.001 to 0.999 nM.

On to `O=C(N[C@@H](C(=O)N1CCC[C@H]1c1ncc(-c2ccc(-c3ccc(-c4cnc([C@@H]5CCCN5C(=O)[C@@H]5CCCO5)[nH]4)cc3)cc2)[nH]1)c1ccccc1)N1CCOCC1` [Example 111, N-((1R)-2-oxo-1-phenyl-2-((2S)-2-(5-(4′-(2-((2S)-1-((2S)-tetrahydro-2-furanylcarbonyl)-2-pyrrolidinyl)-1H-imidazol-5-yl)-4-biphenylyl)-1H-imidazol-2-yl)-1-pyrrolidinyl)ethyl)-4-morpholinecarboxamide], for which the EC50 was in the range of 0.001 to 0.999 nM.

Consider `O=C(N[C@@H](C(=O)N1CCC[C@H]1c1ncc(-c2ccc(-c3ccc(-c4cnc([C@@H]5CCCN5C(=O)[C@@H]5CCCO5)[nH]4)cc3)cc2)[nH]1)c1ccccc1)[C@@H]1CCCO1` [Example 112, (2S)-N-((1R)-2-oxo-1-phenyl-2-((2S)-2-(5-(4′-(2-((2S)-1((2S)-tetrahydro-2-furanylcarbonyl)-2-pyrrolidinyl)-1H-imidazol-5-yl)-4-biphenylyl)-1H-imidazol-2-yl)-1-pyrrolidinyl)ethyl) tetrahydro-2-furancarboxamide], for which the EC50 was 0.001 to 0.999 nM.

For the origin of these results see patent US8574563B2 (Bristol-Myers Squibb Company, priority 2006, dated 2013).
